Measurements as given in PubChem BioAssay (NCI).
Where “and” joins values, the source holds several entries; their conditions need not be identical. Equal values may be shown once.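 Exposure lasted 48 hours, with cells grown in 96-well plates and compounds tested at five concentrations. GI50 = concentration required for 50% inhibition of growth. At the TGI there is no net growth.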

Legend:
Test in all cases: inhibition of tumour cell growth, NCI panel, 48 h
[1] = system: HCT-116 colon
[2] = system: SR leukemia
[3] = system: SNB-19 CNS
[4] = system: MDA-MB-231 breast
[5] = system: TK-10 renal
[6] = system: OVCAR-4 ovarian
[7] = system: KM12 colon
[8] = system: SF-295 CNS

SMILES	GI50 [1]	TGI [1]	GI50 [2]	TGI [2]	GI50 [3]	TGI [3]	GI50 [4]	TGI [4]	GI50 [5]	TGI [5]	GI50 [6]	TGI [6]	GI50 [7]	TGI [7]	GI50 [8]	TGI [8]
COc1ccc(Cn2cc3c(c2-c2cc(OC)c(OC)c(OC)c2)CCc2c(CO)noc2-3)cc1	0.311 µM	11.4 µM	0.194 µM	23.2 µM	0.43 µM	21.4 µM	0.629 µM	19 µM	17.7 µM	55.2 µM	4.2 µM	51.6 µM	0.341 µM	17.9 µM	0.225 µM	15.2 µM
CC1Cc2ccccc2N1C(=O)Cc1nc(N2CCOCC2)cc(=O)[nH]1 (stereo unspecified)	6.47 µM and 24.8 µM	> 100 µM	22.6 µM and 24.4 µM	97.3 µM and > 100 µM	25.3 µM and 45.8 µM	> 100 µM	26.4 µM and 31.3 µM	> 100 µM	14.5 µM and 32.1 µM	> 100 µM	28.1 µM and 31.4 µM	> 100 µM	20.2 µM and 47.6 µM	55.1 µM and > 100 µM	3.15 µM and 6.95 µM	> 100 µM and 97.7 µM
Cc1ccccc1C(C(=O)NC1CCCCC1)N(C(=O)CNc1ncccc1F)c1cccc(F)c1 (stereo unspecified)	96.9 µM	> 100 µM	> 100 µM	> 100 µM	17.2 µM	> 87.3 µM	25.1 µM	> 100 µM	> 56.4 µM	> 100 µM	> 23.6 µM	> 100 µM	> 100 µM	> 100 µM	20.6 µM	> 76.8 µM
OCC1CCCC1O (stereo unspecified)		> 100 µM		> 100 µM		> 100 µM		> 100 µM		> 100 µM		> 100 µM		> 100 µM		> 100 µM
C=CCOC(=O)Nc1cccn([C@H](CC(C)C)C(=O)NCCC(C)C)c1=O	49.6 µM	> 100 µM	72.7 µM	> 100 µM	> 100 µM	> 100 µM	21.1 µM	67.2 µM	> 100 µM	> 100 µM	28.1 µM	> 100 µM	92.8 µM	> 100 µM	18.7 µM	> 100 µM
CCNCCNc1cc(-c2ccc(C(F)(F)F)cc2)c(C#N)c2nc3cc(Cl)c(Cl)cc3n12	0.177 µM	0.338 µM	0.185 µM	0.439 µM	1.88 µM	3.65 µM	1.51 µM	3.1 µM	2.38 µM	3.87 µM	1.41 µM	3.14 µM	1.69 µM	3.2 µM	1.73 µM	3.2 µM
C=C1C(=O)O[C@H]2[C@H]1CC/C(CNC(=O)/C=C/c1ccccc1F)=C\CC[C@@]1(C)O[C@@H]21	0.482 µM	1.69 µM	0.482 µM	6.88 µM	3.83 µM	14.4 µM	1.93 µM	4.44 µM	1.66 µM	3.25 µM	1.66 µM	4.57 µM	4.4 µM	17.3 µM	7.16 µM	20.9 µM
Cn1c(=O)c(Oc2ccc(F)cc2F)cc2cnc(NC3CCOCC3)nc21	> 25 µM	> 25 µM	> 25 µM	> 25 µM	> 25 µM	> 25 µM	> 25 µM	> 25 µM	18.6 µM	> 25 µM	> 25 µM	> 25 µM	> 25 µM	> 25 µM	> 25 µM	> 25 µM
Cc1ccsc1-c1ccc2c(c1)COC2(CCCN(C)C)c1ccc(F)cc1 (stereo unspecified)	1.88 µM	3.7 µM	2.29 µM	7.3 µM	2.77 µM	10.3 µM	1.84 µM	6 µM	3.04 µM	12.8 µM	3.27 µM	13 µM	3.13 µM	10.9 µM	1.77 µM	3.58 µM
NC(=O)c1cc(Br)ccc1NC(=O)/C=C/c1ccccc1	1.24 µM	> 100 µM	0.823 µM	> 100 µM	5.36 µM	> 36.9 µM	2.87 µM	> 41.4 µM	5.93 µM	39.3 µM	8.85 µM	> 100 µM	1.09 µM	> 100 µM	1.33 µM	> 20.3 µM
COc1ccc(-c2cn(-c3cc(OC)c(OC)c(OC)c3)c(=O)[nH]2)cc1OC	> 100 µM	> 100 µM	> 100 µM	> 100 µM	> 100 µM	> 100 µM	> 100 µM	> 100 µM	> 100 µM	> 100 µM	> 100 µM	> 100 µM	> 100 µM	> 100 µM	> 100 µM	> 100 µM
CCCCCCCCCCCCCCCCN(CC)CC	1.77 µM	3.22 µM	1.99 µM	4.51 µM	3.29 µM	13.9 µM	1.75 µM	3.21 µM	1.71 µM	3.4 µM	3.31 µM	11.1 µM	1.87 µM	3.59 µM	1.73 µM	3.55 µM
O=C1CC(CC(OCc2ccccc2)C(OCc2ccccc2)C(COCc2ccccc2)OCc2ccccc2)CC(=O)N1 (stereo unspecified)		> 100 µM and 34.2 µM		> 100 µM and 65.4 µM	> 100 µM and 33.8 µM	> 100 µM		23.7 µM		> 100 µM		> 100 µM		> 100 µM and 21.3 µM	> 100 µM and 11.2 µM	> 100 µM and 28.4 µM
O=c1oc2ccc(Br)cc2c(=O)n1-c1ccc(Cl)cc1F	1.14 µM	4.33 µM	0.798 µM	> 100 µM	0.506 µM	> 100 µM	0.897 µM	5.99 µM	4.19 µM	18.9 µM	0.887 µM	28.1 µM	2.03 µM	4.87 µM	1.78 µM	3.54 µM
O=C1c2cc(F)ccc2-c2c1c1ccc([N+](=O)[O-])cc1c(=O)n2CCCBr	7.23 µM	36.7 µM	0.0885 µM	1.74 µM	8.13 µM	> 100 µM	> 100 µM	> 100 µM	64.8 µM	> 100 µM	> 100 µM	> 100 µM	20.9 µM	> 100 µM	17.8 µM	> 100 µM
